These results are taken from ChEMBL document CHEMBL3991601, “The target landscape of clinical kinase drugs” (Science, 2017).

As usually defined, the Kd is the constant that tells how readily two partners part at equilibrium.

For experiment [1], the target named is T1, Serine/threonine-protein kinase TBK1 (Homo sapiens, UniProt Q9UHD2).
T1 sequence (Q9UHD2 whole entry): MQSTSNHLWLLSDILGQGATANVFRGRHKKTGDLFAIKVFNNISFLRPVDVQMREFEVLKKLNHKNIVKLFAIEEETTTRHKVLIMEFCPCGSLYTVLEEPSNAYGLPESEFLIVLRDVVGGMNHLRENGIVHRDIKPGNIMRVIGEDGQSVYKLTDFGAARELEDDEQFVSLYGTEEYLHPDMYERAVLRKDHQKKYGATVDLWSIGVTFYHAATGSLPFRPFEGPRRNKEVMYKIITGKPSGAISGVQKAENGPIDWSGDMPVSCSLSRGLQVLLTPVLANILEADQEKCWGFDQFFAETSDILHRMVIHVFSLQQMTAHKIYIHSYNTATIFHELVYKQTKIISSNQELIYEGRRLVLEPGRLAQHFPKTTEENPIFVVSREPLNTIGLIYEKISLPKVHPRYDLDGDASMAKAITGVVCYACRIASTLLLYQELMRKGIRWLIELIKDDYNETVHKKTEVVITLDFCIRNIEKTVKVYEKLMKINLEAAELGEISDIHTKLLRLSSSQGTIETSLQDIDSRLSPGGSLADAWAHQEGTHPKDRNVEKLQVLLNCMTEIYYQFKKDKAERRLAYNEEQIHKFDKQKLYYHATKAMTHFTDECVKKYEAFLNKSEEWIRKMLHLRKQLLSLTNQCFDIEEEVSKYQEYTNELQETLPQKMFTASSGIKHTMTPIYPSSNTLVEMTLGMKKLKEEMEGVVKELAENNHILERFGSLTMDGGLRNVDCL

The target in experiment [2] is T2, Dynamin-like GTPase OPA1, mitochondrial (Homo sapiens, UniProt O60313).
T2 sequence (O60313 whole entry): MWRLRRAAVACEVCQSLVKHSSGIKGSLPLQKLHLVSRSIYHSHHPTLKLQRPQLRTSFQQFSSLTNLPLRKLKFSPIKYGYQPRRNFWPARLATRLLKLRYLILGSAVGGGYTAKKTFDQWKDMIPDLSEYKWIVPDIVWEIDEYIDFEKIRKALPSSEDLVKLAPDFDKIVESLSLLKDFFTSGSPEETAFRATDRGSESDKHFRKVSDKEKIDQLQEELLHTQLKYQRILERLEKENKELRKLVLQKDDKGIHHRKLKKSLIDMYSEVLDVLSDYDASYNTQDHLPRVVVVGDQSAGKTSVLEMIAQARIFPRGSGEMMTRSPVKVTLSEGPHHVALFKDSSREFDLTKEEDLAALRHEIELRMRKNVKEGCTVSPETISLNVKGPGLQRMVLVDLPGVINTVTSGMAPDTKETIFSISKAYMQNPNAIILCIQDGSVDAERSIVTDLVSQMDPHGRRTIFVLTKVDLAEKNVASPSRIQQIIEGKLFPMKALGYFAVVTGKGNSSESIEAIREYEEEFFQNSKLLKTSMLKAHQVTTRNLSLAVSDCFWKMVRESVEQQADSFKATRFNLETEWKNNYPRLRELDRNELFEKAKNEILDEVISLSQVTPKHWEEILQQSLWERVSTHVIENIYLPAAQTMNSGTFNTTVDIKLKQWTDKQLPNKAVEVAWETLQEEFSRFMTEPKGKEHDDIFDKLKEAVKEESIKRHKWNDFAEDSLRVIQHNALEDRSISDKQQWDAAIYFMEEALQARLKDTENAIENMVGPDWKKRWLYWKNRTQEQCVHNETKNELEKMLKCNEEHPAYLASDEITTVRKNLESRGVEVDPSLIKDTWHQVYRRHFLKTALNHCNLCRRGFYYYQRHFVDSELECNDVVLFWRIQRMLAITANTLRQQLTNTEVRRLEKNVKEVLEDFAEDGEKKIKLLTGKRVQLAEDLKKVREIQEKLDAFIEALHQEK

Experiment [3] has as its target T3, Ribosyldihydronicotinamide dehydrogenase [quinone] (Homo sapiens, UniProt P16083).
T3 sequence (P16083 whole entry): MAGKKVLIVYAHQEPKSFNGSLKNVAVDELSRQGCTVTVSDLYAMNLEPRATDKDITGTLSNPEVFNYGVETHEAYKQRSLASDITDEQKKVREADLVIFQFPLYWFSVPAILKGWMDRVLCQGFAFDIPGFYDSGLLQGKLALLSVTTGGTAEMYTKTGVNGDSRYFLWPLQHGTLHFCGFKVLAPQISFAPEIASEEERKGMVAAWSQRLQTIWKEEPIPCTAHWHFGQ

In experiment [4] the target is T4, Peroxisomal acyl-coenzyme A oxidase 3 (Homo sapiens, UniProt O15254).
T4 sequence (O15254 whole entry): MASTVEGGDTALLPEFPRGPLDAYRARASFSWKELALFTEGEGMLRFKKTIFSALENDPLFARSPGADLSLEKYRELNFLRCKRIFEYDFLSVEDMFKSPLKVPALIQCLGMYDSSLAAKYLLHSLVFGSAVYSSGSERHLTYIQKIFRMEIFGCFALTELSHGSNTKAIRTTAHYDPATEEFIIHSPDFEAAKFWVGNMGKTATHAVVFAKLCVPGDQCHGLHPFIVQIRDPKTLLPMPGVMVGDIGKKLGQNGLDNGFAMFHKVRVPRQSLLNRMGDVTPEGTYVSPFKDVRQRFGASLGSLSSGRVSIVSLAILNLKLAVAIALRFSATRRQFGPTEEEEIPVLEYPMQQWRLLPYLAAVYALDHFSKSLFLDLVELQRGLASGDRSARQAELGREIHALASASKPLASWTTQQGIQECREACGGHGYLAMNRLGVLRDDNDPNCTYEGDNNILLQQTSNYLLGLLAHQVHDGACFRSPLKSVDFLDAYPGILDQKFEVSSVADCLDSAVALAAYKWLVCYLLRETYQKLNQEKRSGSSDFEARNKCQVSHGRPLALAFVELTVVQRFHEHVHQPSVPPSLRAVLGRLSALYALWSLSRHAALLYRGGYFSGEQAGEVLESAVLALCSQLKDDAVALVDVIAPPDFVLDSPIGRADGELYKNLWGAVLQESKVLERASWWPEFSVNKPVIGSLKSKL

For experiment [5], the target named is Calcium/calmodulin-dependent protein kinase type II subunit gamma (Homo sapiens, UniProt Q13555).
The next experiment concerns the target Insulin receptor (Homo sapiens, UniProt P06213).
The target of experiment [6] is Serine/threonine-protein kinase SIK2 (Homo sapiens, UniProt Q9H0K1).
Another experiment concerns the target Midasin (Homo sapiens, UniProt Q9NU22).
Experiment [7] addresses Elongation factor Tu, mitochondrial (Homo sapiens, UniProt P49411).

The source made the active and inactive calls. Where only a bound is given, the exact number is not on record here.
Further: in the data inactive means no Kd found up to 30 µM.

Insulin receptor, sequence (P06213 28-758 limits assumed): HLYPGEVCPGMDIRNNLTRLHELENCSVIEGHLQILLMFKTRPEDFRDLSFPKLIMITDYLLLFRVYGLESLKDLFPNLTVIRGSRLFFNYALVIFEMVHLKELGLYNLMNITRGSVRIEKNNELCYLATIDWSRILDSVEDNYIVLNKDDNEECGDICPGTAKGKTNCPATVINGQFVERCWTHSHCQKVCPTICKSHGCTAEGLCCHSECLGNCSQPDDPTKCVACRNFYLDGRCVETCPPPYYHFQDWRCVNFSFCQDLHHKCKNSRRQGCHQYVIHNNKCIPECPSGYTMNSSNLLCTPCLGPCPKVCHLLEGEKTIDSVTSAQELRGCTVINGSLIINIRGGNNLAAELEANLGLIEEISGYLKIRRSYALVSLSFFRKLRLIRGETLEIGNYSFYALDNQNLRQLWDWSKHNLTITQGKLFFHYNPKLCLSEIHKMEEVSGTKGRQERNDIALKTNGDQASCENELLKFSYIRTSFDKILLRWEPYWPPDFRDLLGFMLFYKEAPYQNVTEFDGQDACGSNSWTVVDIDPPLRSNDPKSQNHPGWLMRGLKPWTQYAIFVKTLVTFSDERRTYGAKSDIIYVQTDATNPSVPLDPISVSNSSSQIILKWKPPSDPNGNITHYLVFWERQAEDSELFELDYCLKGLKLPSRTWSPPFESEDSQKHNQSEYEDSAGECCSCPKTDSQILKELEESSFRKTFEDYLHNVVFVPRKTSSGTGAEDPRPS
Insulin receptor, sequence (P06213 763-1382 limits assumed): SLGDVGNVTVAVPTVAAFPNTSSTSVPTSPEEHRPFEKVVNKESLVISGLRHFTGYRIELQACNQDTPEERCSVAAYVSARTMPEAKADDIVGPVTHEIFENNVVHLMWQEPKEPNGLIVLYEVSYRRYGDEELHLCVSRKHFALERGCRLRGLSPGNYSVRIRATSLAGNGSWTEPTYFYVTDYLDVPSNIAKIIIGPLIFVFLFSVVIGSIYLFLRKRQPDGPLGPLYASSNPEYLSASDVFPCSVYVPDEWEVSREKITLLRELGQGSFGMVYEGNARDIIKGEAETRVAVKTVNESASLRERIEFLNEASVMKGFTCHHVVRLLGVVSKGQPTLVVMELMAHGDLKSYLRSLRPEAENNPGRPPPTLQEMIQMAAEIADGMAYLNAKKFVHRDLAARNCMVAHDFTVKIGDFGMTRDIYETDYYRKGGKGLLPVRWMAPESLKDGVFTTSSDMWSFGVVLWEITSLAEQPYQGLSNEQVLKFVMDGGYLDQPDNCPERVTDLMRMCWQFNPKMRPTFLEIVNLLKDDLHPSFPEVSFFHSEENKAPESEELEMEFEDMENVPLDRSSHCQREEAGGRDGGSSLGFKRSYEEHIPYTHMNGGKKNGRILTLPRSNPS
Calcium/calmodulin-dependent protein kinase type II subunit gamma, sequence (Q13555 whole entry): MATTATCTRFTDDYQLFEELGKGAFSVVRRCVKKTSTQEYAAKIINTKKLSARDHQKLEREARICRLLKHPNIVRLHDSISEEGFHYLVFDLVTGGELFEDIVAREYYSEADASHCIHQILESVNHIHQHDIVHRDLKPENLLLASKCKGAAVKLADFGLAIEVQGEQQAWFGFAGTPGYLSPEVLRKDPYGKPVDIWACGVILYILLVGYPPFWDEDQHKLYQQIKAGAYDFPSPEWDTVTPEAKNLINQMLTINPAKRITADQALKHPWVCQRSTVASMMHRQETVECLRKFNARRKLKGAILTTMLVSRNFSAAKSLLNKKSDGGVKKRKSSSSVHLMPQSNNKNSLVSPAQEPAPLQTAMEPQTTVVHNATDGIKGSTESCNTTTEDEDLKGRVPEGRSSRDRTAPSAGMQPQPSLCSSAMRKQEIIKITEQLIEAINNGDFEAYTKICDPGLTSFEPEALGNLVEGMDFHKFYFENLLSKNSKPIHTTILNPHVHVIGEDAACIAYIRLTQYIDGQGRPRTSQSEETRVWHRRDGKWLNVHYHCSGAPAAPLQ
Serine/threonine-protein kinase SIK2, sequence (Q9H0K1 whole entry): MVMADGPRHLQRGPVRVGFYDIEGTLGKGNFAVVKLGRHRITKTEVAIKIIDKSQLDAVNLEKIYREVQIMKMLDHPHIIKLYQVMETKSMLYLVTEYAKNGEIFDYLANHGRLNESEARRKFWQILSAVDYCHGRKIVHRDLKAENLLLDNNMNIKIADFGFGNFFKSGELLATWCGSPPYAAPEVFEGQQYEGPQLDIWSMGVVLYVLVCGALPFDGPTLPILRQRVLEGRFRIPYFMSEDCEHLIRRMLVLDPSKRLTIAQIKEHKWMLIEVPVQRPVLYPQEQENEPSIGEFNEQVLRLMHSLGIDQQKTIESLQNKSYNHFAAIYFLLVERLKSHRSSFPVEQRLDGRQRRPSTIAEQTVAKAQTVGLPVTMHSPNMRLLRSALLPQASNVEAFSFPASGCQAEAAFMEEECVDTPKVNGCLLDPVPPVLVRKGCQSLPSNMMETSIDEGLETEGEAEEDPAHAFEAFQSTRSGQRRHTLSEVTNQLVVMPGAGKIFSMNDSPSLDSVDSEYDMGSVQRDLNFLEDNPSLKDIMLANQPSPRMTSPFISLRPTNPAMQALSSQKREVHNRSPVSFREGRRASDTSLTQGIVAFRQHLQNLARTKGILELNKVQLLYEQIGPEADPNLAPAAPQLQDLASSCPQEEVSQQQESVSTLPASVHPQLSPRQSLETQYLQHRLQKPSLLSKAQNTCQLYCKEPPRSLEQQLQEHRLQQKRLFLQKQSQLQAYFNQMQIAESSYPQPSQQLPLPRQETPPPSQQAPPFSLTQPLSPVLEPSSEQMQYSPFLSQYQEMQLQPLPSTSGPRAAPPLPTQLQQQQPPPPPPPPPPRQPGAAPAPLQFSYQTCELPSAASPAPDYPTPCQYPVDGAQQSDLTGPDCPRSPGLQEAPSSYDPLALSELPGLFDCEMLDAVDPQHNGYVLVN

With `COc1cc2nccc(Oc3ccc(NC(=O)Nc4cc(C)on4)c(Cl)c3)c2cc1OC` [TIVOZANIB], the Kd (in experiment [1]; in experiment [2]; in experiment [3]; in experiment [4]; in [5]; at Insulin receptor) was > 30 µM (inactive) throughout. In addition, the Kd (in [6]; on Midasin; in [7]) was > 30 µM (inactive) each time.

`CCCS(=O)(=O)Nc1ccc(F)c(C(=O)c2c[nH]c3ncc(-c4ccc(Cl)cc4)cc23)c1F` [VEMURAFENIB]: the Kd (in experiment [1]; in [2]; in experiment [3]; in [4]; in experiment [5]; on Insulin receptor) was > 30 µM (inactive) in each case. Also, the Kd (in experiment [6]; at Midasin; in experiment [7]) was > 30 µM (inactive) throughout.

With `N[C@@H]1CCCN(c2c(/C=C3\SC(=O)NC3=O)cccc2-c2ccccc2)C1`, the Kd (in experiment [1]; in [2]; in experiment [3]; in experiment [4]; in [5]; at Insulin receptor) was > 30 µM (inactive) in each case. The Kd (in experiment [6]; on Midasin; in [7]) was > 30 µM (inactive) throughout.

Regarding `O=C(O)[C@]1(Cc2cccc(Nc3nccs3)n2)CC[C@@H](Oc2cccc(Cl)c2F)CC1` [MK-5108], the Kd (in experiment [1]; in experiment [2]; in experiment [3]; in experiment [4]; in experiment [5]; on Insulin receptor) was > 30 µM (inactive) each time. Further, the Kd (in experiment [6]; on Midasin; in experiment [7]) was > 30 µM (inactive) throughout.

As to `COc1cc(OC)c(/C=C/S(=O)(=O)Cc2ccc(OC)c(NCC(=O)O)c2)c(OC)c1` [RIGOSERTIB], the Kd in experiment [1] was > 30 µM (inactive); in [2] it was > 30 µM (inactive); in [3] it was 15.2 µM (active); in experiment [4] it was > 30 µM (inactive); in [5], > 30 µM (inactive); on Insulin receptor, > 30 µM (inactive). In addition, the Kd (in experiment [6]; on Midasin; in [7]) was > 30 µM (inactive) each time.

With `CC[C@@H]1C(=O)N(C)c2cnc(Nc3ccc(C(=O)N[C@H]4CC[C@H](N5CCN(CC6CC6)CC5)CC4)cc3OC)nc2N1C(C)C` [VOLASERTIB], the Kd (in experiment [1]; in [2]; in [3]; in experiment [4]; in experiment [5]; on Insulin receptor) was > 30 µM (inactive) in each case. Besides, the Kd (in [6]; at Midasin; in experiment [7]) was > 30 µM (inactive) throughout.

Consider `Cc1cc(-c2cc(O)ccc2Cl)cc2nnc(Nc3ccc(OCCN4CCCC4)cc3)nc12`, for which the Kd (in [1]; in [2]; in [3]; in [4]; in experiment [5]; at Insulin receptor) was > 30 µM (inactive) in each case. The values for the Kd (in experiment [6]; on Midasin; in experiment [7]) were 0.002 µM (active), > 30 µM (inactive) and > 30 µM (inactive), respectively.

With `CCn1c(=O)c(-c2cc[nH]n2)cc2c(C)nc(N)nc21` [VOXTALISIB], the Kd (in experiment [1]; in [2]; in experiment [3]; in experiment [4]; in [5]; at Insulin receptor) was > 30 µM (inactive) in each case. In addition, the Kd (in [6]; on Midasin; in experiment [7]) was > 30 µM (inactive) throughout.

For the molecule `Cn1ncc(Cl)c1-c1cc(C(=O)N[C@H](CN)Cc2cccc(F)c2)sc1Cl` [AFURESERTIB], the Kd (in experiment [1]; in experiment [2]; in experiment [3]; in experiment [4]; in experiment [5]; at Insulin receptor) was > 30 µM (inactive) in each case. Also, the Kd (in experiment [6]; on Midasin; in experiment [7]) was > 30 µM (inactive) each time.

For the molecule `Cc1cc2c(F)c(Oc3ncnn4cc(OC[C@@H](C)OC(=O)[C@H](C)N)c(C)c34)ccc2[nH]1` [BRIVANIB ALANINATE], the Kd (in experiment [1]; in [2]; in experiment [3]; in [4]; in [5]; on Insulin receptor) was > 30 µM (inactive) in each case. Also, the Kd (in experiment [6]; on Midasin; in [7]) was > 30 µM (inactive) in each case.

`CN1CCC(CNc2ccc3ncc(-c4cccc(OC(F)(F)F)c4)n3n2)CC1` [SGI-1776]: the Kd (in experiment [1]; in experiment [2]; in experiment [3]; in experiment [4]; in experiment [5]; at Insulin receptor) was > 30 µM (inactive) each time. In addition, the Kd in experiment [6] is 6.12 µM (active); on Midasin it was > 30 µM (inactive); in [7], > 30 µM (inactive).
